≈ marks a conversion by molar mass, not a printed value.
Assays:
[1] = system: Escherichia coli MG1655 ΔacrB; assay: MIC, influence of multidrug efflux pump (Example 5); type: cell-based
Description: (§1) Using the EGCG derivatives, the minimum inhibitory concentration (MIC) was measured in the same manner as described in Section (2) of Example 2, except that Escherichia coli MG1655 (hereinafter referred to as a wild-type strain) and gene deletion strains of Escherichia coli MG1655 were used as the bacteria. The gene deletion strains were: strains obtained by deleting the efflux pump genes, namely, acrB, acrD, and acrEF, respectively, in Escherichia coli MG1655 (ΔacrD, ΔacrEF, and ΔacrB); and a strain obtained by deleting the outer membrane protein tolC gene that couples to proteins encoded by the efflux pump genes (ΔtolC).
(§2) As Comparative Example 5, the minimum inhibitory concentration (MIC) was measured in the same manner as in Example 5, except that EGCG was used instead of the EGCG derivative.

[2] = system: Escherichia coli MG1655 ΔacrEF; assay: as above; type: cell-based
Description: as §1, §2

[3] = system: Escherichia coli MG1655 (wild type); assay: as above; type: cell-based
Description: as §1, §2

[4] = system: Escherichia coli MG1655 ΔacrD; assay: as above; type: cell-based
Description: as §1, §2

[5] = system: Escherichia coli MG1655 ΔtolC; assay: as above; type: cell-based
Description: as §1, §2

[6] = system: methicillin-resistant Staphylococcus aureus (MRSA) ATCC43300; assay: MIC, broth microdilution (Example 1); type: cell-based; details: for MIC: MRSA ATCC43300, MH-broth, 37° C., 18 hours
Description: (§3) Methicillin-susceptible Staphylococcus aureus (MSSA) NCTC8325 and methicillin-resistant Staphylococcus aureus (MRSA) ATCC43300 were used as bacteria. The bacteria of each type were cultured using Mueller-Hinton Broth (MH-broth, Difco) as a medium. Then, the minimum inhibitory concentration (MIC) of each of the EGCG derivatives was measured by a broth microdilution method in accordance with the Clinical and Laboratory Standards Institute (CLSI) guidelines (hereinafter the same).
(§4) First, each of the EGCG derivatives was dissolved in 100% dimethyl sulfoxide (DMSO, Wako Pure Chemical Industries, Ltd.) so that the concentration thereof became 5120 μg/ml. The resultant solution was diluted with DMSO or sterile distilled water so as to prepare two-fold dilution series of antibacterial agent solutions. […] Each of these antibacterial agent solutions was dispensed to wells of a 96-well plate. The concentration of the EGCG derivative in the antibacterial agent solution dispensed to the wells was set to be 10 times as high as the final concentration. On the other hand, the bacteria were cultured in the MH-broth at 37° C. overnight, and the thus-obtained pre-culture solution was diluted with a new MH-broth so that the concentration thereof in the MH-broth became 10^−4 (10^4-fold dilution), thus preparing a bacterial culture solution of about 1×10^5 CFU/ml (CFU: Colony Forming Unit, the number of viable cells). The bacterial culture solution was further added to each well, and the mixture was cultured at 37° C. for 18 hours. The ratio (volume ratio) between the antibacterial agent solution and the bacterial culture solution added to each well was set to 1:9 (the antibacterial agent solution:the bacterial culture solution), and the volume of the mixture of them per well was set to 100 μl in total. The final concentration of the EGCG derivative in the mixture was set to 8 μg/ml to 512 μg/ml, and the number of viable cells in the mixture was set to about 1×10^5 CFU/ml. Then, after the completion of the culture, the MIC was determined. Also, the turbidity (OD600 nm) was measured using a plate reader so as to identify minor differences.
(§5) As Comparative Example 1, the same procedures as in Example 1 were performed, except that unsubstituted EGCG was used as an antibacterial agent instead of the EGCG derivatives of Example 1. Furthermore, as a control, the same procedures as in Example 1 were performed, except that sterile distilled water, 100% DMSO, or 50% DMSO was used instead of the antibacterial agent solutions containing the EGCG derivatives.

[7] = system: Methicillin-susceptible Staphylococcus aureus (MSSA) NCTC8325; assay: MIC, broth microdilution (Example 1); type: cell-based; details: MH-broth, 37° C., 18 hours
Description: as §3, §4, §5

[8] = system: MRSA clinical isolate No. 8; assay: Checker-board method, combination with β-lactam agent (Example 6); type: cell-based, Staphylococcus aureus; parameters: key to minimum EGCG-C16 concentration inhibiting growth alone: *MIC: The minimum EGCG-C16 concentration when the growth of the bacteria was inhibited using EGCG-C16 alone under a β-lactam agent free condition
Description: (§6) EGCG-C16 was dissolved in 100% DMSO, and each of the above-described β-lactam agents was dissolved in sterile distilled water. Thereafter, they were diluted with sterile distilled water so as to achieve predetermined concentrations, and the respective agents at the respective concentrations were combined one another. The change in MIC of each β-lactam agent by the addition of EGCG-C16 was measured by the checker-board method. […] The minimum inhibitory concentration (MIC) of each of the above-described β-lactam agents when used in combination with EGCG-C16 was measured in the same manner as described in Section (2) of Example 2, except that the MRSA ATCC43300 and the MRSA clinical isolate No. 8 used in Example 2 were used as the bacteria.
(§7) As Comparative Example 6, the minimum inhibitory concentration (MIC) was measured in the same manner as in Example 6, except that EGCG was used instead of EGCG-C16.

MRSA ATCC43300 = assay: as above; type: cell-based, Staphylococcus aureus; parameters: key to minimum EGCG-C16 concentration inhibiting growth alone: *MIC: The minimum EGCG-C16 concentration when the growth of the bacteria was inhibited using EGCG-C16 alone under a β-lactam agent free condition
Description: as §6, §7

[9] = concentration of EGCG-C16 or EGCG 0 μg/ml
[10] = concentration of EGCG-C16 or EGCG 8 μg/ml
[11] = MRSA ATCC43300, concentration of EGCG-C16 or EGCG 0 μg/ml
[12] = MRSA ATCC43300, concentration of EGCG-C16 or EGCG 8 μg/ml
[13] = MRSA ATCC43300, concentration of EGCG-C16 or EGCG 16 μg/ml
[14] = MRSA ATCC43300, concentration of EGCG-C16 or EGCG 32 μg/ml
[15] = MRSA ATCC43300, concentration of EGCG-C16 or EGCG 64 μg/ml
[16] = MRSA ATCC43300, concentration of EGCG-C16 or EGCG 128 μg/ml
[17] = MRSA ATCC43300, concentration of EGCG-C16 or EGCG 2 μg/ml
[18] = MRSA ATCC43300, concentration of EGCG-C16 or EGCG 4 μg/ml

| Compound | MIC [1] [µg/mL] | MIC [2] [µg/mL] | MIC [3] [µg/mL] | MIC [4] [µg/mL] | MIC [5] [µg/mL] | MIC [6] [µg/mL] | MIC [7] [µg/mL] | MIC of ABPC when used in combination with EGCG-C16 or EGCG [8, 9] [µg/mL] | MIC of ABPC when used in combination with EGCG-C16 or EGCG [8, 10] [µg/mL] | MIC of ABPC when used in combination with EGCG-C16 or EGCG (MRSA ATCC43300; [11]) [µg/mL] | MIC of IPM when used in combination with EGCG-C16 or EGCG (MRSA ATCC43300; [11]) [µg/mL] | MIC of ABPC when used in combination with EGCG-C16 or EGCG (MRSA ATCC43300; [12]) [µg/mL] | MIC of IPM when used in combination with EGCG-C16 or EGCG (MRSA ATCC43300; [12]) [µg/mL] | further results |
| --- | --- | --- | --- | --- | --- | --- | --- | --- | --- | --- | --- | --- | --- | --- |
| EGCG-palmitoleate [EGCG-C16E] | 64 | >128 | >128 | >128 | 64 | – | – | – | – | – | – | – | – | – |
| EGCG-stearate [EGCG-C18] | – | – | – | – | – | 32 | 16 | – | – | – | – | – | – | – |
| O=C(O[C@@H]1Cc2c(O)cc(O)cc2O[C@@H]1c1cc(O)c(O)c(O)c1)c1cc(O)c(O)c(O)c1 [EGCG, Epigallocatechin gallate, reference compound] | 128 (≈ 279 µM) | >256 | >256 | >256 | 128 (≈ 279 µM) | 256 (≈ 558 µM) | 128 (≈ 279 µM) | 64 | 4 | 32 | 0.016 | 8 | 0.016 | MIC of ABPC when used in combination with EGCG-C16 or EGCG ([8]; concentration of EGCG-C16 or EGCG 16 μg/ml): 8 µg/mL; MIC of ABPC when used in combination with EGCG-C16 or EGCG ([8]; concentration of EGCG-C16 or EGCG 32 μg/ml): 8 µg/mL; MIC of ABPC when used in combination with EGCG-C16 or EGCG ([8]; concentration of EGCG-C16 or EGCG 64 μg/ml): 4 µg/mL; MIC of ABPC when used in combination with EGCG-C16 or EGCG ([8]; concentration of EGCG-C16 or EGCG 128 μg/ml): 1 µg/mL; antagonistic action in combination with IPM (MRSA ATCC43300; ATCC43300, IPM susceptible, EGCG at 16 to 64 μg/ml, EGCG derivative in the examined concentration range): weak antagonistic action; MIC of ABPC when used in combination with EGCG-C16 or EGCG (MRSA ATCC43300; [13]): 4 µg/mL; MIC of IPM when used in combination with EGCG-C16 or EGCG (MRSA ATCC43300; [13]): 0.031 µg/mL; MIC of ABPC when used in combination with EGCG-C16 or EGCG (MRSA ATCC43300; [14]): 4 µg/mL; MIC of IPM when used in combination with EGCG-C16 or EGCG (MRSA ATCC43300; [14]): 0.031 µg/mL; MIC of ABPC when used in combination with EGCG-C16 or EGCG (MRSA ATCC43300; [15]): 2 µg/mL; MIC of IPM when used in combination with EGCG-C16 or EGCG (MRSA ATCC43300; [15]): 0.031 µg/mL; MIC of ABPC when used in combination with EGCG-C16 or EGCG (MRSA ATCC43300; [16]): 1 µg/mL; MIC of IPM when used in combination with EGCG-C16 or EGCG (MRSA ATCC43300; [16]): 0.016 µg/mL |
| EGCG-α-linoleate [EGCG-C18TE] | 64 | >128 | >128 | >128 | 64 | – | – | – | – | – | – | – | – | – |
| EGCG-dioctanoate [EGCG-C8×2] | 64 | >128 | >128 | >128 | 32 | – | – | – | – | – | – | – | – | – |
| EGCG-palmitate [EGCG-C16] | 64 | >128 | >128 | >128 | 64 | 8 | 8 | 64 | 2 | 32 | 0.016 | 1 | 0.004 | inhibition of propagation (MIC, turbidity OD600 nm) ([6]; MRSA, FIG. 1 and Table 3): remarkable propagation-inhibiting effect; MIC of ABPC when used in combination with EGCG-C16 or EGCG ([8]; concentration of EGCG-C16 or EGCG 2 μg/ml): 32 µg/mL; MIC of ABPC when used in combination with EGCG-C16 or EGCG ([8]; concentration of EGCG-C16 or EGCG 4 μg/ml): 16 µg/mL; minimum EGCG-C16 concentration inhibiting growth alone ([8]; β-lactam agent free, mark stands in the column 16 μg/ml): *MIC; MIC of ABPC when used in combination with EGCG-C16 or EGCG (MRSA ATCC43300; [17]): 16 µg/mL; MIC of IPM when used in combination with EGCG-C16 or EGCG (MRSA ATCC43300; [17]): 0.016 µg/mL; MIC of ABPC when used in combination with EGCG-C16 or EGCG (MRSA ATCC43300; [18]): 8 µg/mL; MIC of IPM when used in combination with EGCG-C16 or EGCG (MRSA ATCC43300; [18]): 0.016 µg/mL; minimum EGCG-C16 concentration inhibiting growth alone (MRSA ATCC43300; MRSA ATCC43300, β-lactam agent free, mark stands in the column 16 μg/ml): *MIC |
